Measured values taken from patent US11014915B2, “Selective estrogen receptor degrader” (SUN PHARMA ADVANCED RESEARCH COMPANY LIMITED, priority 2019, dated 2021).

Key:
[1] = target: T1, ER-α in MCF-7 cells harboring ER wild type (Homo sapiens, UniProt P03372); assay: ER-α degradation (SERD) assay, MCF-7 wild type; format: cell-based; conditions: MCF-7 Wt, 1 nM; for % of ER-α remaining at 1 nM: 4 days, western blot, vehicle control as 100%
T1 construct: evaluated in MCF-7 cells harboring ER wild type; endogenous in cells; host or cells: MCF-7
T1 sequence (P03372 1-595): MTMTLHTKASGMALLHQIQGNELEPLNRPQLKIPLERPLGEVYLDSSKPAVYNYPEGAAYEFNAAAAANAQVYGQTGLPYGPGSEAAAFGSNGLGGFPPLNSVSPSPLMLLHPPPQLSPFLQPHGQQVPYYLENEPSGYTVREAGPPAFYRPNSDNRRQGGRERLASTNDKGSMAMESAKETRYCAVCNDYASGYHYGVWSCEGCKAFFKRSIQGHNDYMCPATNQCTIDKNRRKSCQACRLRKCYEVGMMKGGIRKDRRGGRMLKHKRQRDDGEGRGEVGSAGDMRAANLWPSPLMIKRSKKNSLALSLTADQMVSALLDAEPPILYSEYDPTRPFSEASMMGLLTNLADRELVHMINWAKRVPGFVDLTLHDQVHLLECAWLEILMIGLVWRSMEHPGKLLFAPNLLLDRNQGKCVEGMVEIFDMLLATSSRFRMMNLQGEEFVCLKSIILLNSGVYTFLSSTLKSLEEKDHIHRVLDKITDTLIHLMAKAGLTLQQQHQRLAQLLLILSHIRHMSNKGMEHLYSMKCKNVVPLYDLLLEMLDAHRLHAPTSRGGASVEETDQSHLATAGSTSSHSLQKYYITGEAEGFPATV
Protocol: Selective Estrogen Receptor Degradation (SERD) Assay:
The SERD activity for the test compounds was evaluated in MCF-7 cells harboring ER wild type, and MCF-7 cells harboring mutant ER (WT/D538G and WT/Y537S). Briefly, cells were plated in phenol red free RPMI1640 medium supplemented with 5% charcoal stripped fetal bovine serum. The seeding density was 40000 cells/well for MCF-7 WT and MCF-7 D538G and 50000 cells/well MCF-7 Y537S in a 48-well plate. Following overnight incubation, the cells were treated with varying concentrations of test compounds (final concentration: 1000 nM to 0.01 nM, 0.1% DMSO) for 4 days. The cells were lysed using PBS supplemented with 1 mM EDTA, 0.5% Triton X-100, 5 mM NaF, 6 M urea, and 1× Protease inhibitor cocktail. The lysate was analyzed for ER alpha protein using western blot. For the western blot, the cell lysate (12.5-40 μg total protein) was resolved on a 10% SDS PAGE and transferred onto a PVDF membrane. The blots were blocked using 5% skim milk powder in 0.1% PBS-T for 1 hour at room temperature, followed by co-incubation with rabbit anti-human β-actin antibody and rabbit anti-human ERα antibody for 2 hours at room temperature. The blots were subsequently probed with anti-rabbit IgG-HRP conjugate as secondary antibody for 1 hour at room temperature. The blots were developed by using West Pico Super Signal Chemiluminescence substrate and the bands were processed for densitometry analysis using Image Lab software (BioRad version 6.0.0). ERα band intensity was normalized to that housekeeping protein for respective samples. The % ER remaining was calculated by normalizing against the vehicle control (as 100%).

[2] = system: subcutaneous MCF7-Y537S xenografts; assay: In-vivo efficacy in MCF7-Y537S mice xenografts; parameters: species or system female athymic nude mice; conditions: for % Tumor growth inhibition compared to vehicle group after 28 days: p.o., once daily
Protocol: In-Vivo Efficacy of Compound of Formula I and Compound of Formula Ia: […]
The efficacy of the compound of Formula I and the compound of Formula Ia were evaluated in female athymic nude mice harboring subcutaneous MCF7-Y537S xenografts. Dose formulations of the compound of Formula I and the compound of Formula Ia were prepared in Tween 80 (0.4% v/v of the total volume of suspension) in 0.5% w/v carboxymethylcellulose (CMC) and administered once daily orally for 28 days. Two perpendicular diameters of tumor were measured with digital Vernier caliper. Tumor volume (V) was calculated using the following equation: V=(a^2×b)/2, where “a” is the width of the tumor (small diameter), and “b” the length (large diameter), both in millimeters. Tumors were monitored twice weekly and compared with a vehicle treated group.

SERD activity (in words) [1]	% of ER-α remaining at 1 nM [1] [%]	Compound	further results
negligible SERD activity	–	CC1=C(c2cc(F)cc(F)c2)C(c2ccc(/C=C/CN3CCC(CF)CC3)cc2)Oc2cc(O)ccc21 (racemic) [Compound 3, 3-(3,5-difluorophenyl)-2-{4-[(E)-3-(4-fluoromethylpiperidin-1-yl)propenyl]phenyl}-4-methyl-2H-chromen-7-ol]	–
negligible SERD activity	–	CC1=C(c2cc(F)cc(F)c2)C(c2ccc(/C=C/CN3CC[C@@H](C)C3)cc2)Oc2cc(O)ccc21 (mixture of isomers) [Compound 5, 3-(3,5-difluorophenyl)-4-methyl-2-[4-[(E)-3-[(3R)-3-methylpyrrolidin-1-yl]prop-1-enyl]phenyl]-2H-chromen-7-ol]	–
–	–	CC1=C(c2cc(F)cc(F)c2)C(c2ccc(/C=C/CN3CC(CF)C3)cc2)Oc2cc(O)ccc21 (racemic) [Formula I, 3-(3,5-difluorophenyl)-2-[4-[(E)-3-[3-(fluoromethyl)azetidin-1-yl]prop-1-enyl]phenyl]-4-methyl-2H-chromen-7-ol]	% Tumor growth inhibition compared to vehicle group after 28 days ([2]; 50 mg/kg): 46%; % Tumor growth inhibition compared to vehicle group after 28 days ([2]; 100 mg/kg): 57%; Tumor growth compared to the vehicle group (in words) ([2]; once daily orally for 28 days): significant reduction in the tumor growth
complete loss of SERD activity	100	CC1=C(c2cc(F)cc(F)c2)C(c2ccc(C#CCN3CC(CF)C3)cc2)Oc2cc(O)ccc21 (racemic) [Compound 7, 3-(3,5-difluorophenyl)-2-[4-[3-[3-(fluoromethyl)azetidin-1-yl]prop-1-ynyl]phenyl]-4-methyl-2H-chromen-7-ol]	–
negligible SERD activity	–	CC1=C(c2cc(F)cc(F)c2)C(c2ccc(/C=C/CN3CC[C@@H](CF)C3)cc2)Oc2cc(O)ccc21 (mixture of isomers) [Compound 4, 3-(3,5-difluorophenyl)-2-[4-[(E)-3-[(3R)-3-(fluoromethyl)pyrrolidin-1-yl]prop-1-enyl]phenyl]-4-methyl-2H-chromen-7-ol]	–
very negligible SERD activity	80.8	CC1=C(c2cc(F)cc(F)c2)C(c2ccc(/C=C\CN3CC(CF)C3)cc2)Oc2cc(O)ccc21 (racemic) [Compound 6, 3-(3,5-difluorophenyl)-2-{4-[(Z)-3-(3-fluoromethylazetidin-1-yl)propenyl]phenyl}-4-methyl-2H-chromen-7-ol]	–
complete loss of the SERD activity	100	CC1=C(c2cc(F)cc(F)c2)C(c2ccc(/C=C/CN3CC(CF)C3)cc2)Oc2ccc(O)cc21 (racemic) [Compound 2, 3-(3,5-difluorophenyl)-2-[4-[(E)-3-[3-(fluoromethyl)azetidin-1-yl]prop-1-enyl]phenyl]-4-methyl-2H-chromen-6-ol]	–
